Assay results: patent US20080085264A1, “METHODS FOR ENHANCING STEM CELL ENGRAFTMENT DURING TRANSPLANTATION” (priority 2003, published 2008)

Columns and labels:
C57BL/6 mice [1] = assay: G-CSF induced mobilization of HSC/HPC in C57BL/6 mice (progenitor cell assays of peripheral blood); assay type: in vivo, mouse; details: for effect of scrambled peptides on mobilization: C57BL/6, data not shown
Protocol: (§1) Mobilization was achieved by treating mice with 2.5 μg (micrograms) G-CSF/mouse 2×/day s.c. for 2 days (Broxmeyer H E, et al. J Exp Med. 1999; 189:1987-1992). Mice simultaneously treated with a specific CD26 inhibitor also underwent treatment with either 5 μmol Diprotin A/mouse 2×/day s.c. for 2 days or 5 μmol Val-Pyr/mouse 2×/day s.c. for 2 days. Diprotin A was obtained commercially (Peptides International, Louisville, Ky.) and Val-Pyr was obtained as a gift from Nicolai Wagtmann (Novo Nordisk, Denmark). After either G-CSF or G-CSF plus CD26 inhibitor treatment peripheral blood cells were collected and total cellular nuclearity was measured and progenitor cell assays were performed using total peripheral blood cells.
(§2) One-hundred thousand mouse G-CSF mobilized peripheral blood cells were plated in triplicate for colony formation by CFU-GM, BFU-E, and CFU-GEMM and scored at 7 days incubation as previously described (Cooper S, Broxmeyer H E. Measurement of interleukin-3 and other hematopoietic growth factors, such as GM-CSF, G-CSF, M-CSF, erkythropoietin and the potent co-stimulating cytokines steel factor and FLt-3 ligand. In: Coligan J E K A, Margulies D H, Shevach E M, Strober E, Coico R, ed. Current protocols in immunology. New York: John Wiley & Sons; 1996:6.4.1-6.4.12). Cells were plated for colony formation in 1% methylcellulose culture medium containing 30% FBS, 1 U/ml recombinant(r) human Epo, 0.1 mM Hemin, 5% Pokeweed Mitogen Spleen Conditioned Media (PWMSCM), and 50 ng/ml rmouse Steel Factor (=Stem Cell Factor, SCF).

BoyJ recipient mice [2] = assay: Short-term homing of donor Sca-1+lin- cells to recipient bone marrow; assay type: in vivo, mouse
Protocol: Control C57BL/6 (CD45.2^+), CD26 inhibitor treated C57BL/6 (CD45.2^+), or CD26^−/− (CD45.2^+) sorted Sca-1^+lin^− or LD donor BM cells were transplanted by tail-vein injection into lethally irradiated (1100 cGy split dose) congenic BoyJ (CD45.1^+) female recipient mice (Haneline L S, et al. Blood. 1999; 94:1-8.) Contribution of Sca^+lin^− donor cells in the context of Sca-1^+lin^− recipient cells was calculated by flow cytometric analysis of cells found in the recipient mouse BM by measuring CD45.1+ and CD45.2^+ on Sca-1^+lin^− LD cells isolated from the recipient mice 24 hours post transplant. […] Comparisons between treatment groups were made using a two-tailed Student's t-test and data was plotted as mean (M)±standard error of the mean (SEM).

BoyJ recipient mice [3] = assay: Non-competitive long-term engraftment; assay type: in vivo, mouse; details: six months post transplant, P<0.05, n=5
Protocol: Control C57BL/6 (CD45.2^+) or CD26 inhibitor treated C57BL/6 (CD45.2^+) LD donor BM cells were transplanted by tail-vein injection into lethally irradiated (1100 cGy split dose) congenic BoyJ (CD45.1^+) female recipient mice (Haneline L S, et al. Blood. 1999; 94:1-8). Contribution of donor cells was obtained by measuring the number of donor and residual recipient lymphocytes in the peripheral blood. The % donor contribution was calculated by flow cytometric analysis of peripheral blood lymphocytes found in the recipient mouse peripheral blood by measuring CD45.1^+ and CD45.2^+ on cells isolated from the recipient mice 1-6 months post transplant. No less than five mice from each recipient group were analyzed, each one having received a transplant of 5×10^5 pooled LD donor BM cells. Comparisons between treatment groups were made using a two-tailed Student's t-test and data was plotted as mean (M)±standard error of the mean (SEM).

DBA/2 mice [4] = assay: G-CSF induced mobilization of HSC/HPC in DBA/2 mice (progenitor cell assays of peripheral blood); assay type: in vivo, mouse; details: without G-CSF
C57BL/6 mice [5] = assay: G-CSF induced mobilization of HSC/HPC in C57BL/6 mice (progenitor cell assays of peripheral blood); assay type: in vivo; details: 5 μmol/mouse 2×/day s.c. alone, without G-CSF
BoyJ irradiated mice = assay: Competitive repopulation assay; assay type: in vivo, mouse; details: six months post transplant, 5×10^5 or 2.5×10^5 donor cells vs 5×10^5 competitor BoyJ cells
Source text: Donor LDBM cells (5×10^5) from representative mice from each test group were transplanted into lethally irradiated BoyJ mice (expressing CD45.1) Quantitative contribution to chimerism was obtained 2-6 months post-transplantation in the same manner described for long-term engraftment assays.
Eight week old female recipient mice were lethally irradiated (1100 cGy split dose) prior to transplantation as previously described (Haneline L S, et al. Blood. 1999; 94:1-8). Limiting dilutions of donor LD BM cells (5×10^5, 2.5×10^5, 1.25×10^5, and 0.625×10^5 cells) from control C57Bl/6 mice, CD26-inhibitor treated LD BM cells, or untreated LD BM cells from CD26^−/− mice (all expressing CD45.2) are co-transplanted with a constant number (5×10^5) of pooled competitive BM cells from congenic BoyJ mice (expressing CD45.1), into BoyJ irradiated mice. To determine quantitatively the relative cell contribution to chimerism of each test cell population tail-vein blood samples were obtained post-transplantation each month for three months and CD45.1 and CD45.2 was measured by flow-cytometry. Cells were divided into CD26 inhibitor (either Diprotin A or Val-Pyr) treated or untreated groups obtained from normal C57BL/6 mice and untreated cells obtained from CD26^−/− mice. […]

DBA/2 mice [6] = assay: G-CSF induced mobilization of HSC/HPC in DBA/2 mice (progenitor cell assays of peripheral blood); assay type: in vivo, mouse
Protocol: as §1, §2

CD26-/- mice = assay: G-CSF induced mobilization of progenitors in CD26-/- mice; assay type: in vivo, mouse; details: CD26-/- mice on C57Bl/6 background
Protocol: as §1
as §2, with “Cells were plated for colony formation in 1% methylcellulose culture medium containing 30% FBS, 1 U/ml recombinant(r) human Epo, 0.1 mM Hemin, 5% Pokeweed Mitogen Spleen Conditioned Media (PWMSCM), and 50 ng/ml rmouse Steel Factor (=Stem Cell Factor, SCF).” left out

[7] = inhibitor 5 μmol/mouse 2×/day s.c. during G-CSF mobilization, C57BL/6
[8] = inhibitor treatment during G-CSF mobilization
[9] = 2.5 μg G-CSF/mouse 2×/day s.c., C57BL/6

## Pro-Ile-Ile
C57BL/6 mice [1]
  effect of scrambled peptides on mobilization: no effect

## Ile-Ile-Pro
C57BL/6 mice [1]
  effect of scrambled peptides on mobilization: no effect

## c1cc(CN2CCCNCCNCCCNCC2)ccc1CN1CCCNCCNCCCNCC1 [AMD3100]
BoyJ recipient mice [2]; 10×10^6 LDBM donor cells treated with AMD3100 for 15 minutes prior to transplantation
  effect on the increase in homing efficiency generated by inhibition or loss of CD26: reversed the increase in homing efficiency
BoyJ recipient mice [2]; AMD3100 treatment alone, no CD26 inhibitor
  homing efficiency compared to control LDBM cells: reduction in homing efficiency

## CC(C)[C@H](N)C(=O)N1CCCC1 [Val-Pyr, Valine-Pyrrolidide]
C57BL/6 mice [1]; [7]
  reduction in BFU-E compared to G-CSF alone: 22%
  reduction in CFU-GEMM compared to G-CSF alone: 62%
  reduction in CFU-GM compared to G-CSF alone: 55%
BoyJ recipient mice [2]; donor LDBM unit treated prior to transplant, P<0.01, n=6
  short-term homing of donor cells: significant increase in short-term homing
BoyJ recipient mice [3]
  donor cell contribution to the formation of peripheral blood leukocytes: Increased donor cell contribution
DBA/2 mice [4]
  effect on the mobilization of progenitors, inhibitor alone: little or no effect
C57BL/6 mice [5]
  effect on the mobilization of progenitors, inhibitor alone: little or no effect
BoyJ irradiated mice
  donor contribution to chimerism: increased donor contribution to chimerism
DBA/2 mice [6]; [8]
  reduction in BFU-E compared to G-CSF alone: 49%
  reduction in CFU-GEMM compared to G-CSF alone: 56%
  reduction in CFU-GM compared to G-CSF alone: 52%

B1: G-CSF: cytokine used to induce mobilization of HSC/HPC (protein, UniProt P09919 31-207, looked up)
Granulocyte …: TPLGPASSLPQSFLLKCLEQVRKIQGDGAALQEKLVSECATYKLCHPEELVLLGHSLGIPWAPLSSCPSQALQLAGCLSQLHSGLFLYQGLLQALEGISPELGPTLDTLQLDVADFATTIWQQMEELGMAPALQPTQGAMPAFASAFQRRAGGVLVASHLQSFLEVSYRVLRHLAQP
CD26-/- mice
  mobilization of progenitor cells by G-CSF: low, but significant, mobilization
C57BL/6 mice [1]; [9]
  BFU-E mobilized to peripheral blood: 1027±107 BFU-E/ml
  CFU-GEMM mobilized to peripheral blood: 442±35 CFU-GEMM/ml
  CFU-GM mobilized to peripheral blood: 2348±249 CFU-GM/ml
DBA/2 mice [6]; 2.5 μg G-CSF/mouse 2×/day s.c.
  BFU-E mobilized to peripheral blood: 2219±141 BFU-E/ml
  CFU-GEMM mobilized to peripheral blood: 1186±163 CFU-GEMM/ml
  CFU-GM mobilized to peripheral blood: 8145±1038 CFU-GM/ml
